Experiment: passive permeability, PAMPA, ADME assay (AID 1508612)
Conditions: pH 7.4, 30.0 min, 50.0 µM

Compound | Papp [×10⁻⁶ cm/s]
COc1cccc(CNc2ccc(S(=O)(=O)Nc3cc(C)on3)cc2)c1O | 62.9
COC(=O)c1ccccc1NC(=O)c1ccccc1OC(F)F | > 1000
Cc1cccc(C)c1Nc1c(-c2cccs2)nc2ncccn12 | 969
Cc1ccccc1C(=O)N1CCc2cc(-n3cc(NC(=O)Cc4ccccc4)cn3)ccc21 | 82.6
COc1ccc(C(=O)N2CCCC(c3nn(-c4ccc(OC)cc4)c(=O)[nH]3)C2)cc1 (stereo not drawn) | 599
c1c[nH]c(C2CCN(c3ncc(-c4ccc5c(c4)OCCCO5)s3)CC2)n1 | > 1000
O=C(c1ccc2c(c1)ncn2-c1cccc(C(F)(F)F)c1)N1CCCCC1 | > 1000
COc1ccc2c(c1)CCc1c-2n[nH]c1C(=O)N1CCc2c(nc3cc(-c4ccccc4)[nH]n3c2=O)C1 | 15.8
O=C1Nc2ccc(C(=O)c3ccco3)cc2/C1=C/c1cc(Cl)c(O)c(Cl)c1 | 41.1
COc1cccc(CNc2ccc(S(=O)(=O)Nc3nc4ccccc4[nH]3)cc2)c1O | 30.8
Cc1ccc(NC(=O)CSc2ncc(S(=O)(=O)c3ccc(C(C)C)cc3)c(=O)[nH]2)cc1C | 1.8
Cc1ccc(NC(=O)N(Cc2cn(C)c3ccccc23)C2CCCCC2)cc1C | 20.7
CN(C)C(=O)c1cc2cnc(Nc3ccc(N4CCNCC4)cn3)nc2n1C1CCCC1 | 138
O=C1c2ccccc2C2=Nc3ccccc3SC(c3ccccc3F)C12 (stereo not drawn) | < 1
Cc1ccc(-c2nnc(Nc3ccc(Br)cc3)c3ccccc23)cc1S(=O)(=O)N1CCN(C)CC1 | > 1000
CNc1sc(-c2cccc3ccccc23)nc1C#N | 716
Cc1ccc2c(c1)/C(=C\c1cc(Cl)c(O)c(Cl)c1)C(=O)N2 | 97.5
Cc1nn2c(c1-c1ccccc1OCc1ccccc1)N(C(=O)Cc1ccc3c(c1)OCO3)CCC2 | > 1000
Fc1cccc(CNc2nc(-c3ccccc3C(F)(F)F)nc3ccccc23)c1 | 315

Compound | Papp [×10⁻⁶ cm/s]
CC(C)c1ccccc1-c1ncc(F)c(NCC2CCN(c3cccnc3)CC2)n1 | > 1000
O=C(O)c1ccc(Nc2nc(-c3cc4ccccc4oc3=O)cs2)cc1O | 8.62
COc1cc2ncnc(Nc3ccc(Oc4ccccc4)cc3)c2cc1OC | > 1000
CCOc1ccc(CCNC(=O)c2ccc(C(=O)c3ccccc3)cc2)cc1OCC | > 1000
COc1cc(Nc2nc(-c3ccncc3)nc3ccccc23)ccc1Cl | 19.8
CC1CCc2cc(F)ccc2N1C(=O)CSc1nnc2c(n1)[nH]c1ccccc12 (stereo not drawn) | > 1000
Cc1ccc(-c2nc3ccccc3o2)cc1NC(=O)COc1ccccc1 | 791
Cc1ccc(S(=O)(=O)Nc2ncccc2C(=O)Nc2nc(-c3ccccc3)cs2)cc1 | 814
Cc1ccc(-c2cc(C(=O)Nc3ncco3)c3ccccc3n2)cc1C | 798
O=C1Nc2ccccc2/C1=C\c1ccc(O)cc1 | 755
N#Cc1cccc(NC(=O)c2sc3nc4c(cc3c2N)N2CCC4CC2)c1 | 917
Cc1c(C(=O)NN2CCCCC2)nn(-c2ccc(Cl)cc2Cl)c1-c1ccc(Cl)cc1 | > 1000
CCOC(=O)N1CCN(Cc2nc3cc(NC(=O)c4ccc(OC)cc4)ccc3n2C(C)C)CC1 | > 1000
C#C[C@]1(OC(C)=O)CC[C@H]2[C@@H]3CCC4=C/C(=N/O)CC[C@@H]4[C@H]3CC[C@@]21CC | 858
CC[C@@]1(O)C(=O)OCc2c1cc1n(c2=O)Cc2c-1nc1cc(F)c(C)c3c1c2[C@@H](N)CC3 | 370
Fc1cc(Nc2nc(-c3ccncc3)nc3ccccc23)ccc1-n1cncn1 | 171
CCCN1CNc2c(c(=O)[nH]c(=S)n2Cc2ccc(OC)c(OC)c2)C1 | 55
O=S(=O)(c1ccccc1)N1CCN(c2nc(-c3ccc(Br)cc3)cs2)CC1 | 205
COC(=O)Nc1nc2ccc(Sc3ccccc3)cc2[nH]1 | 197

Reference: PubChem BioAssay AID1508612
